Results from patent publication US20080064714A1, “Novel Pyrrolodihydroisoquinolines” (NYCOMED GMBH, priority 2005, published 2008).

Key:
[1] = test system: NCl-H460 non-small cell lung cancer cells; assay: Alamar Blue cell viability assay (anti-proliferative/cytotoxic activity); assay type: cell-based; details: Homo sapiens, NCI-H460 cells, 72 hours incubation, read-out: −log IC50 NCI-H460 (mol/l), anti-proliferative/cytotoxic activity (converted)
Method: The anti-proliferative/cytotoxic activity of the compounds described herein, can be tested on NCl-H460 non-small cell lung cancer cells using the Alamar Blue cell viability assay (described in O'Brien et al. Eur J Biochem 267, 5421-5426, 2000). The compounds are dissolved as 20 mM solutions in dimethylsulfoxide (DMSO) and subsequently diluted in semi-logarithmic steps. DMSO dilutions are further diluted 1:10 into Dulbecco's modified Eagle's medium (DMEM) containing 10% fetal calf serum to a final concentration ten times as much as the final concentration in the test. NCl-H460 cells are seeded into 96 well flat bottom plates at a density of 4000 cells per well in a volume of 180 μl per well. 24 hours after seeding the 20 μl each of the compound dilutions in DMEM medium are added into each well of the 96 Well plate. Each compound dilution is tested as quadruplicates. Wells containing untreated control cells are filled with […] DMEM medium containing 1% DMSO. The cells are then incubated with the substances for 72 hours at 37° C. in a humified atmosphere containing 5% carbon dioxide. To determine the viability of the cells, 20 μl of an Alamar Blue solution (Biosource) are added and the fluorescence is measured at an extinction of 544 nm and an emission of 590 nm. For the calculation of cell viability the emission value from untreated cells is set to 100% viability and the emission rates of treated cells are set in relation to the values of untreated cells. Viabilities are expressed as % values.
The corresponding IC50 values of the compounds for anti-proliferative/cytotoxic activity are determined from the concentration-effect curves.
Representative IC50 values for anti-proliferation/cytotoxicity determined in the aforementioned assay follow from the following table A, in which the numbers of the compound correspond to the numbers of the examples.

[2] = test system: NCl-H460 non-small cell lung cancer cells; assay: modified Alamar Blue cell viability assay for compound combinations; assay type: cell-based; details: in combination with the compounds according to this invention; concentration-effect curves, single compound vs. combination
Method: In order to assess favorable compound combinations in vitro which might be used for therapeutic applications, a modified Alamar Blue cell viability assay (described in O'Brien et al. Eur J Biochem 267, 5421-5426, 2000) is applied. For that purpose, anti-proliferative/cytotoxic effects of the compounds described herein in combination with other pharmacologically active compounds are assayed on NCl-H460 non-small cell lung cancer cells. The respective compounds are dissolved as 20 mM solutions in dimethylsulfoxide (DMSO) and subsequenty diluted in semi-logarithmic steps. […] To determine the viability of the cells, 20 μl of an Alamar Blue solution (Biosource) are added and the fluorescence is measured at an extinction of 544 nm and an emission of 590 nm. For the calculation of cell viability the fluorescence emission value from untreated cells is set to 100% viability and the emission values of treated cells are set in relation to the values of untreated cells. Viabilities are expressed as % values. […]
Synergistic or antagonistic effects of compound combinations can be determined from the concentration-effect curves by comparison of curve shapes and IC50 values for single compound treatment vs. the compound combination.

Q: For `CCC(=O)c1c(-c2ccc(-c3ccccc3)cc2)c(C)n2c1-c1cc(OC)c(OC)cc1CC2` [Example 5, 1-(2-Biphenyl-4-yl-8,9-dimethoxy-3-methyl-5,6-dihydro-pyrrolo[2,1-a]isoquinolin-1-yl)-propan-1-one], which IC50 [1] is on record?
A: 158 to 1580 nM

Q: What about the melting point of the same molecule?
A: 209 to 211 °C

Q: With `CCC(=O)c1c(-c2ccc(OC)c(OC)c2F)c(C)n2c1-c1cc(OC)c(OC)cc1CC2` [Example 2, 1-[2-(2-Fluoro-3,4-dimethoxy-phenyl)-8,9-dimethoxy-3-methyl-5,6-dihydro-pyrrolo[2,1-a]isoquinolin-1-yl]-propan-1-one] as the molecule, how does the melting point read?
A: 129 to 132 °C

Q: For `CCC(=O)c1c(-c2csc3ccccc23)c(C)n2c1-c1cc(OC)c(OC)cc1CC2` [Example 3, 1-(2-Benzo[b]thiophen-3-yl-8,9-dimethoxy-3-methyl-5,6-dihydro-pyrrolo[2,1-a]isoquinolin-1-yl)-propan-1-one], which IC50 [1] is on record?
A: 158 to 1580 nM

Q: And the melting point?
A: 181 to 183 °C

Q: Which IC50 [1] does the source give for `CCC(=O)c1c(-c2cc(C)c(O)c(C)c2)c(C)n2c1-c1cc(OC)c(OC)cc1CC2` [Example 1, 1-[2-(4-Hydroxy-3,5-dimethyl-phenyl)-8,9-dimethoxy-3-methyl-5,6-dihydro-pyrrolo[2,1-a]isoquinolin-1-yl]-propan-1-one] here?
A: 158 to 1580 nM

Q: With `CCC(=O)c1c(-c2c[nH]c3ccccc23)c(C)n2c1-c1cc(OC)c(OC)cc1CC2` [Example 4, 1-[2-(1H-Indol-3-yl)-8,9-dimethoxy-3-methyl-5,6-dihydro-pyrrolo[2,1-a]isoquinolin-1-yl]-propan-1-one] as the molecule, how does the IC50 [1] read?
A: 158 to 1580 nM

Q: And the melting point?
A: 238 to 240 °C

Q: For `Nc1ncnc2c1nc(Sc1ccc(Cl)cc1)n2[C@@H]1O[C@@H]2COP(O)(=S)O[C@H]2[C@H]1O` (stereo partly shown) [RP-8-CPT-cAMPs], which “synergistic effects with the compounds according to this invention” value [2] is on record?
A: highly synergistic

Q: With `COc1cc2c(cc1OC)-c1c(C(=O)C3CC3)c(-c3cc(C)c(O)c(C)c3)c(C)n1CC2` [Example 6, 1-Cyclopropyl-1-[2-(4-hydroxy-3,5-dimethyl-phenyl)-8,9-dimethoxy-3-methyl-5,6-dihydro-pyrrolo[2,1-a]isoquinolin-1-yl]-methanone] as the molecule, how does the IC50 [1] read?
A: 158 to 1580 nM
